Results reported in PubChem BioAssay (NCI).
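GI50 marks 50% less growth. TGI is the concentration that stops growth completely.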

Key:
Assay in all cases: NCI anticancer screen, dose series, 384-well format
786-0 renal = system: 786-0 renal
A498 renal = system: A498 renal
ACHN renal = system: ACHN renal
BT-549 breast = system: BT-549 breast
CAKI-1 renal = system: CAKI-1 renal
CCRF-CEM leukemia = system: CCRF-CEM leukemia
COLO 205 colon = system: COLO 205 colon
DU-145 prostate = system: DU-145 prostate
EKVX NSCLC = system: EKVX NSCLC
HCC-2998 colon = system: HCC-2998 colon
HCT-116 colon = system: HCT-116 colon
HCT-15 colon = system: HCT-15 colon
HOP-92 NSCLC = system: HOP-92 NSCLC
HS 578T breast = system: HS 578T breast
IGROV1 ovarian = system: IGROV1 ovarian
K-562 leukemia = system: K-562 leukemia
KM12 colon = system: KM12 colon
LOX IMVI melanoma = system: LOX IMVI melanoma
M14 melanoma = system: M14 melanoma
MALME-3M melanoma = system: MALME-3M melanoma
MCF7 breast = system: MCF7 breast
MDA-MB-435 melanoma = system: MDA-MB-435 melanoma
MDA-MB-468 breast = system: MDA-MB-468 breast
MOLT-4 leukemia = system: MOLT-4 leukemia
NCI-H226 lung = system: NCI-H226 lung
NCI-H322M lung = system: NCI-H322M lung
NCI-H522 lung = system: NCI-H522 lung
NCI/ADR-RES ovarian = system: NCI/ADR-RES ovarian
OVCAR-3 ovarian = system: OVCAR-3 ovarian
OVCAR-5 ovarian = system: OVCAR-5 ovarian
OVCAR-8 ovarian = system: OVCAR-8 ovarian
RPMI-8226 leukemia = system: RPMI-8226 leukemia
SF-268 CNS = system: SF-268 CNS
SF-295 CNS = system: SF-295 CNS
SF-539 CNS = system: SF-539 CNS
SK-MEL-2 melanoma = system: SK-MEL-2 melanoma
SK-MEL-28 melanoma = system: SK-MEL-28 melanoma
SK-MEL-5 melanoma = system: SK-MEL-5 melanoma
SK-OV-3 ovarian = system: SK-OV-3 ovarian
SNB-19 CNS = system: SNB-19 CNS
SNB-75 CNS = system: SNB-75 CNS
SR leukemia = system: SR leukemia
SW-620 colon = system: SW-620 colon
TK-10 renal = system: TK-10 renal
UACC-257 melanoma = system: UACC-257 melanoma
UACC-62 melanoma = system: UACC-62 melanoma
UO-31 renal = system: UO-31 renal

C[C@@H](O)[C@H](NC(=O)N[C@@H](CC(N)=O)c1nc([C@@H](N)CO)no1)C(=O)O
GI50 ([…]-0 renal): > 100 µM
TGI (786-0 renal): > 100 µM
GI50 (A498 renal): > 100 µM
TGI (A498 renal): > 100 µM
GI50 (ACHN renal): > 100 µM
TGI (ACHN renal): > 100 µM
GI50 (BT-549 breast): > 100 µM
TGI (BT-549 breast): > 100 µM
GI50 (CAKI-1 renal): > 100 µM
TGI (CAKI-1 renal): > 100 µM
GI50 (CCRF-CEM leukemia): > 100 µM
TGI (CCRF-CEM leukemia): > 100 µM
GI50 (COLO 205 colon): > 100 µM
TGI (COLO 205 colon): > 100 µM
GI50 (DU-145 prostate): > 100 µM
TGI (DU-145 prostate): > 100 µM
GI50 (EKVX NSCLC): > 100 µM
TGI (EKVX NSCLC): > 100 µM
GI50 (HCC-2998 colon): > 100 µM
TGI (HCC-2998 colon): > 100 µM
GI50 (HCT-116 colon): > 100 µM
TGI (HCT-116 colon): > 100 µM
GI50 (HCT-15 colon): > 100 µM
TGI (HCT-15 colon): > 100 µM
GI50 (HOP-92 NSCLC): > 100 µM
TGI (HOP-92 NSCLC): > 100 µM
GI50 (HS 578T breast): > 100 µM
TGI (HS 578T breast): > 100 µM
GI50 (IGROV1 ovarian): > 100 µM
TGI (IGROV1 ovarian): > 100 µM
GI50 (K-562 leukemia): > 100 µM
TGI (K-562 leukemia): > 100 µM
GI50 (KM12 colon): > 100 µM
TGI (KM12 colon): > 100 µM
GI50 (LOX IMVI melanoma): > 100 µM
TGI (LOX IMVI melanoma): > 100 µM
GI50 (M14 melanoma): > 100 µM
TGI (M14 melanoma): > 100 µM
GI50 (MALME-3M melanoma): > 100 µM
TGI (MALME-3M melanoma): > 100 µM
GI50 (MCF7 breast): > 100 µM
TGI (MCF7 breast): > 100 µM
GI50 (MDA-MB-435 melanoma): > 100 µM
TGI (MDA-MB-435 melanoma): > 100 µM
GI50 (MDA-MB-468 breast): > 100 µM
TGI (MDA-MB-468 breast): > 100 µM
GI50 (MOLT-4 leukemia): > 100 µM
TGI (MOLT-4 leukemia): > 100 µM
GI50 (NCI-H226 lung): > 100 µM
TGI (NCI-H226 lung): > 100 µM
GI50 (NCI-H322M lung): > 100 µM
TGI (NCI-H322M lung): > 100 µM
GI50 (NCI-H522 lung): > 100 µM
TGI (NCI-H522 lung): > 100 µM
GI50 (NCI/ADR-RES ovarian): > 100 µM
TGI (NCI/ADR-RES ovarian): > 100 µM
GI50 (OVCAR-3 ovarian): > 100 µM
TGI (OVCAR-3 ovarian): > 100 µM
GI50 (OVCAR-5 ovarian): > 100 µM
TGI (OVCAR-5 ovarian): > 100 µM
GI50 (OVCAR-8 ovarian): > 100 µM
TGI (OVCAR-8 ovarian): > 100 µM
GI50 (RPMI-8226 leukemia): > 100 µM
TGI (RPMI-8226 leukemia): > 100 µM
GI50 (SF-268 CNS): > 100 µM
TGI (SF-268 CNS): > 100 µM
GI50 (SF-295 CNS): > 100 µM
TGI (SF-295 CNS): > 100 µM
GI50 (SF-539 CNS): > 100 µM
TGI (SF-539 CNS): > 100 µM
GI50 (SK-MEL-2 melanoma): > 100 µM
TGI (SK-MEL-2 melanoma): > 100 µM
GI50 (SK-MEL-28 melanoma): > 100 µM
TGI (SK-MEL-28 melanoma): > 100 µM
GI50 (SK-MEL-5 melanoma): > 100 µM
TGI (SK-MEL-5 melanoma): > 100 µM
GI50 (SK-OV-3 ovarian): > 100 µM
TGI (SK-OV-3 ovarian): > 100 µM
GI50 (SNB-19 CNS): > 100 µM
TGI (SNB-19 CNS): > 100 µM
GI50 (SNB-75 CNS): > 100 µM
TGI (SNB-75 CNS): > 100 µM
GI50 (SR leukemia): > 100 µM
TGI (SR leukemia): > 100 µM
GI50 (SW-620 colon): > 100 µM
TGI (SW-620 colon): > 100 µM
GI50 (TK-10 renal): > 100 µM
TGI (TK-10 renal): > 100 µM
GI50 (UACC-257 melanoma): > 100 µM
TGI (UACC-257 melanoma): > 100 µM
GI50 (UACC-62 melanoma): > 100 µM
TGI (UACC-62 melanoma): > 100 µM
GI50 (UO-31 renal): > 100 µM
TGI (UO-31 renal): > 100 µM
